One experiment relates to ERK. Nature of the experiment: ERK phosphorylation in NPC by flow cytometry. It counts as cell-based, human. Here is the method:
Signaling: Isolated NPC were incubated with coat proteins for 10 minutes, placed on ice, fixed, permeabilized with saponin, and stained with fluorescein isothiocyanate-(FITC-) conjugated phosphospecific monoclonal antibodies to ERK (Santa Cruz Biotechnology, Santa Cruz, Calif.). Cells were then analyzed by flow cytometry. Activity of PP2A was inhibited by incubation with okadaic acid (Calbiochem, San Diego, Calif.) at 2.5 μM for 1 hour prior to the addition of coat proteins. Experiments were performed at least twice, and determinations were performed in triplicate.
Proliferation of NPC is increased by signals that increase ERK phosphorylation (Learish et al. (2000) Develop. Brain Res. 122:97-109). […] NPC were incubated with a panel of HIV coat proteins and assayed to determine the fraction of cells with phosphorylated ERK. The CM235 and IIIb coat proteins inhibited ERK phosphorylation by 34% and 77% respectively (p<0.05 for both; FIGS. 2A and 2B). […] Thus, HIV coat proteins are able to activate a cellular phosphatase by signaling through chemokine receptors and reduce ERK phosphorylation, leading to reduced NPC proliferation.
Background: Flow cytometry measures light scatter and fluorescence of single cells or particles in a stream.

The subject of experiment [1] is human NPC. Kind of experiment: BrdU incorporation into NPC neurospheres by flow cytometry. Format: cell-based. An excerpt:
FIG. 1 is a graph showing the number of NPC colonies displaying outgrowth of cells with neuronal morphology after treatment with coat proteins from the HIV strains 93TH975, CM235 and IIIb. The mean+/−standard error is shown. PTX=pertussis toxin, Anti V3=monoclonal antibody to the V3 loop region of gp120. FIG. 1B is a series of graphs showing the level of bromodeoxyuridine (BrdU) incorporation into NPC neurospheres treated with coat proteins from the HIV strains 93TH975, CM235 and IIIb. Shaded area=control cells, solid line=treated cells.
To quantitate the ability of the coat proteins to cause cells to become quiescent, the number of attached, differentiated colonies was counted. […] In contrast, the 93TH975 coat protein had no effect. In order to confirm that cell proliferation was indeed inhibited by the coat proteins, cultures of NPC were labeled with BrdU, and BrdU incorporation was measured by flow cytometry.
(In general: Dividing cells build labelled thymidine or BrdU into new DNA.)

For a further experiment, the system named is p21 and p27. Nature of the experiment: p21 and p27 expression in NPC by immunohistochemistry. Format: cell-based, human. Here is the method: For p21 and p27 detection, NPC were grown with recombinant coat proteins for 24 hours. Cells were fixed and monoclonal antibodies to p21 or p27 (Pharmingen) were added. A secondary antibody conjugated to Cy3 was used for detection.
NCP were incubated with 800 pM recombinant coat proteins, and expression of p21 and p27 was analyzed using immunohistochemistry.

The subject of experiment [2] is NPC in human hippocampal slices. Kind of experiment: Hippocampal slice cultures, BrdU positive NPC. Format: cell-based. The note with it: coat protein 1 nM; p<0.001. Here is the method: Hippocampal slice cultures: Discarded hippocampal tissue was obtained from patients undergoing corrective surgery for seizures as previously described (Roy et al. (2000) Nat. Med. 6:271-277; and Pincus et al. (1998) Neurosurg. 42:858-868). Tissue was obtained within 1 hour of removal and cultured as described (Stoppini et al. (1991) J. Neurosci, Meth. 37:173-182). Briefly, tissue was sliced to 200 μm thickness using a Brendel-Vitron tissue slicer (Vitron, Inc., Tucson, Ariz.). Slices were placed in a Transwell insert (Costar, Corning, N.Y.) and cultured in neural progenitor maintenance medium (NPMM) with or without chemokines (500 ng/ml), HIV coat proteins (1 nM) or CSF (2%) added on day 0. Each sample was tested in triplicate. The entire experiment was performed at least twice with identical results. Slices were labeled with BrdU on day 5 of culture, and harvested for immunohistochemistry on day 7 by freezing slices in OCT. Five-micron sections were made, and BrdU incorporation was detected using a BrdU in situ kit (Pharmingen, San Diego, Calif.). For dual staining of BrdU and Musashil, a polyclonal antibody to Musashil (Chemicon International, Temecula, Calif.) was used at a dilution of 1:10. Apoptotic cells were detected using a TUNEL assay (Oncogene, Boston, Mass.). […]

Experiment [3] has as its system human NPC. Nature of the experiment: Plating assay: NPC colony formation / quiescence. It counts as cell-based. How it is done:
Cells and Materials: Normal human NPC were obtained from Clonetics Corp (San Diego, Calif.), and grown in neural progenitor maintenance medium (Clonetics) with human recombinant basic fibroblast growth factor, epidermal growth factor, neural survival factors and antibiotics. These cells were derived as described previously (Svendsen (1998) J. Neurosci. Meth. 85:141-152).
Plating Assay: On day 0, HIV coat proteins at a concentration of 800 pM, or CSF at a concentration of 2% was added to cultures of NPC. Each protein or CSF sample was tested in triplicate. Cultures were incubated for seven days, and then cells were plated onto 24 well polyethylene-imine coated plates. The number of cell colonies having more than 20 cells with typical neuronal morphology was counted for each well after 7 days in culture. Determinations of colony inhibition for all proteins and CSF samples were done on each of three different lots of NPC. Each lot was passaged 1-3 times before testing, with no differences seen between this number of passages.
The ability of HIV coat proteins to induce quiescence in human NPC was tested using NPC in the form of neurospheres. Typically, neurospheres with quiescent cells fail to attach and differentiate, while neurospheres containing proliferating cells will attach and differentiate into neurons and astrocytes. To determine whether only those coat proteins that signal through either the CXCR4 receptor or the […] receptor would induce quiescence of NPC, purified recombinant coat proteins from several different strains of HIV were tested. These included the R5 strain CM235, the X4 strain IIIb, and the clade E/A recombinant R5 strain 93TH975 (Gao et al. (1996) J. Virol. 70:1651-1667). […] The number of colonies containing more than 20 cells with typical neuronal morphology was counted after 7 days in culture. […] None of the coat proteins induced cell death in NPC, as determined by trypan blue staining (>95% viability in all coat-protein treated cultures). […]

The next experiment deals with human neurospheres (NPC). Kind of experiment: Block of IIIb coat protein effect on NPC proliferation by recombinant apolipoproteins. Format: cell-based. The note with it: 20 nM recombinant apolipoprotein. How it is done:
FIG. 6 is a graph showing the number of BrdU labeled NPC in samples treated with recombinant HIV gp120 from the IIIb strain, which was pre-incubated with or without recombinant ApoE3 and ApoE4.
A risk factor for the development of HIV dementia is homozygosity for the apolipoprotein E4 genotype (Corder et al. (1998) Nat. Med. 4:1182-1184). In Herpes simplex virus infection, it has been speculated that apo E proteins compete with HSV for binding to HS, and that apo E4 cannot compete as efficiently as apo E3 (Itzhaki et al. (1998) Nat. Med. 4:1344). To determine whether apolipoproteins might compete with HIV coat proteins for binding to cell surface HS on NPC, human neurospheres were incubated with the IIIb coat protein, and the ability of recombinant apolipoproteins to block the inhibitory effect of the coat protein on NPC proliferation was tested. […] Thus, apolipoproteins compete with HIV coat proteins for cell surface binding.

On to “IIIb: purified recombinant HIV coat protein (gp120) of the X4 strain IIIb”, for which, in the experiment on ERK (NPC incubated with coat protein 10 minutes, p<0.05 for CM235 and IIIb, 93TH975 non-significant), the “reduction in fraction of NPC with phosphorylated ERK” value was determined as 77%. For the same molecule, in the experiment on human NPC [1] (7 days after addition), the “BrdU incorporation into NPC, tested 7 days after addition of coat proteins” value is listed as “incorporation similar to controls”. Moreover, in the experiment with human NPC [1] (coat protein treated NPC), the “BrdU incorporation into NPC compared with controls” value was “less BrdU incorporation”. Moreover, the “expression of p21 and p27 in NPC” value in the experiment on p21 and p27 (800 pM recombinant coat protein) is “induced expression of p21 and p27”. Moreover, the “reduction of proliferation of NPC (BrdU positive cells) in hippocampal slices” value in experiment [2] came to 70%. Also, in the experiment on human NPC [3] (coat protein 800 pM for 7 days), the “induction of quiescence / effect on attached differentiated NPC colonies (in words)” value was “caused NPC to enter a quiescent state”. For the same molecule, the “reduction of the number of differentiated NPC colonies” value in the experiment with human NPC [3] (coat protein 800 pM for 7 days, colonies counted after 7 days on coated plates, p<0.001) was found to be 74%.
In the case of apo E3: recombinant apolipoprotein E3, the “block of IIIb coat protein inhibition of NPC proliferation” value in the experiment with human neurospheres (NPC) is given as “prevented the IIIb coat protein from inhibiting NPC proliferation”.
For the molecule pertussis toxin [reference compound], the “effect on the inhibitory effects of CM235 and IIIb coat proteins on NPC” value in the experiment with human NPC [3] (added to NPC cultures in addition to coat proteins) is “eliminated”.
Take `c1cc(CN2CCCNCCNCCCNCC2)ccc1CN1CCCNCCNCCCNCC1` [AMD3100, reference compound]: the “effect on induction of p21 and p27 by the IIIb coat protein” value in the experiment on p21 and p27 (with IIIb coat protein) is given as “blocked”.
Regarding apo E4: recombinant apolipoprotein E4, the “block of IIIb coat protein inhibition of NPC proliferation” value in the experiment on human neurospheres (NPC) is “did not”.
Take `C=C1[C@@H](O)[C@@H]2O[C@]3(CC[C@H](/C=C/[C@@H](C)[C@@H]4CC(C)=C[C@@]5(O[C@H](C[C@@](C)(O)C(=O)O)CC[C@H]5O)O4)O3)CC[C@H]2O[C@@H]1[C@@H](O)C[C@H](C)[C@H]1O[C@@]2(CCCCO2)CC[C@H]1C` [okadaic acid, reference compound]: the “effect on inhibition of ERK phosphorylation induced by CM235 and IIIb coat proteins” value with ERK (2.5 μM for 1 hour prior to coat proteins) is “blocked the inhibition of ERK phosphorylation”.

Values taken from patent US20060074049A1, “Use of heparinoids for treatment and prevention of dementia” (priority 2004, published 2006).
